For test [1], the system named is Leishmania donovani axenic amastigote parasites. Nature of the test: Leishmania donovani axenic amastigote proliferation assay (Cell TiterGlo luminescence, 2 day incubation). Format: cell-based. To be noted: Leishmania donovani, read-out: L. donovani amastigotes EC50. (In general: In ATP-based viability assays light output follows the ATP content of the culture.)
In test [2] the test system is L. donovani HU3 strain in mouse peritoneal macrophages. Nature of the test: Assay for proliferation of Leishmania parasites in infected mouse peritoneal macrophages (SybrGreen staining, high-content imaging, 5 days). Format: cell-based, Leishmania donovani. The note with it: Leishmania donovani, Peritoneal macrophage, L. donovani in mouse peritoneal macrophages, read-out: L. donovani Macrophage EC50.

The subject of test [3] is Trypanosoma brucei Lister 427 strain, bloodstream form. Nature of the test: Assay for proliferation of kinetoplastid parasite Trypanosoma brucei (Cell Titer Glo, 48 hours). Format: cell-based. To be noted: Trypanosoma brucei, T. brucei Lister 427 bloodstream form, read-out: T. brucei EC50. Summed up: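 Bloodstream-form T. brucei Lister 427 in HMI-9 medium was exposed to compound (DMSO vehicle) for 48 hours at 37° C, 5% CO2. Parasite growth was read as ATP by CellTiter-Glo luminescence, with EC50 calculated from percent inhibition.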

Test [4] concerns Trypanosoma cruzi amastigotes (Tulahuen strain expressing Lac-Z) cultured in 3T3 fibroblast cells. Nature of the test: microbe, parasite or virus in culture. Format: cell-based. To be noted: Trypanosoma cruzi, TULAHUEN, Fibroblast.
Where [5] appears, read: T. cruzi amastigotes in 3T3 fibroblast cells, read-out: T cruzi EC50.
[6] abbreviates: axenic amastigotes, inhibition of proliferation.
[7] abbreviates: T. cruzi amastigotes in 3T3 fibroblast cells, inhibition of proliferation, read-out: T cruzi EC50.

Results on 33 compounds are retold here after patent US20160045505A1, “COMPOUNDS AND COMPOSITIONS FOR THE TREATMENT OF PARASITIC DISEASES” (NOVARTIS AG, priority 2013, published 2016).

Structures are written as SMILES. Read-outs that look alike come from different tables or passages of the source. Some results are limits rather than exact numbers.

Broadly, the EC50 is the concentration giving half of the maximal effect. With `Cc1nc(C)c(C(=O)Nc2ccc(F)c(-c3cn4cc(NC5CC5)cnc4n3)c2)o1` [Compound 494], the EC50 in test [1] (L. donovani axenic amastigotes) was determined as 3.52 µM; in test [2], 4.06 µM; in test [3] it was 1.01 µM; in test [4] (setting [5]) it was 1.3 µM.
As to `CC(C)OC(=O)Nc1cnc2nc(-c3cc(NCC(=O)N4CCCC4)ccc3F)cn2c1` [Compound 560], the EC50 amounted to 9.84 µM in test [1] (L. donovani axenic amastigotes), 29.7 µM in test [2], 5.65 µM in test [3] and 12.1 µM in test [4] (read-out: T cruzi EC50 (μM)).
As to `Cc1ncc(C(=O)Nc2ccc(F)c(-c3cn4cc(NC(C)C)cnc4n3)c2)o1` [Compound 462], the EC50 in test [1] (L. donovani axenic amastigotes) amounted to 0.174 µM; in test [2], 0.403 µM; in test [3] it was 0.129 µM; in test [4] (setting [5]) it was 0.151 µM.
Take `Cc1ncc(C(=O)Nc2ccc(F)c(-c3cn4cc(C5CCC5)cnc4n3)c2)o1` [Compound 211]: the half-maximal effective concentration (EC50) in test [1] (setting [6]) stood at 0.021 µM; in test [2] (inhibition of proliferation) it was 0.055 µM; in test [3] (inhibition of proliferation), 0.029 µM; in test [4] (setting [7]), 0.016 µM.
As to `CC(C)OC(=O)Nc1cnc2nc(-c3cc(NC(=O)c4ccc(S(C)(=O)=O)s4)ccc3F)cn2c1` [Compound 109], the EC50 in test [1] (setting [6]) was > 25 µM; in test [2] (inhibition of proliferation), 28.2 µM; in test [3] (inhibition of proliferation), > 50 µM; in test [4] (setting [7]) it was > 20 µM.
Regarding `Cc1n[nH]c(C(=O)Nc2cnc3nc(-c4cc(NC(=O)c5oc(C)nc5C)ccc4F)cn3c2)n1` [Compound 171], the 50% effective concentration (EC50) is 1.54 µM in test [1] (setting [6]), > 50 µM in test [2] (inhibition of proliferation), 1.41 µM in test [3] (inhibition of proliferation) and > 20 µM in test [4] (setting [7]).
`CC(C)OC(=O)Nc1cnc2nc(-c3cc(NC4=NC(C)(C)CO4)ccc3F)cn2c1` [Compound 500]: the concentration for a half-maximal effect (EC50) in test [1] (L. donovani axenic amastigotes) was > 25 µM; in test [2] it was > 17.6 µM; in test [3] it was > 50 µM; in test [4] (setting [5]), > 20 µM.
On to `Cc1nc(C)c(C(=O)Nc2cccc(-c3cn4cc(-c5ccccc5)cnc4n3)c2)o1` [Compound 336], for which the concentration giving a half-maximal response (EC50) worked out at 0.074 µM in test [1] (setting [6]), 0.168 µM in test [2] (inhibition of proliferation), 0.086 µM in test [3] (inhibition of proliferation) and 0.045 µM in test [4] (setting [7]).
Regarding `Cc1nc(C)c(C(=O)Nc2ccc(F)c(-c3cn4cc(-c5cnccc5C)cnc4n3)c2)o1` [Compound 442], the EC50 in test [1] (L. donovani axenic amastigotes) was found to be 0.087 µM; in test [2], 0.208 µM; in test [3] it was 0.055 µM; in test [4] (setting [5]), 0.048 µM.
In the case of `Cc1nc(C)c(C(=O)Nc2ccc(F)c(-c3cn4cc(NC(=O)C5CCCO5)cnc4n3)c2)o1` (stereo not drawn) [Compound 149], the concentration for a half-maximal effect (EC50) in test [1] (setting [6]) was found to be 0.241 µM; in test [2] (inhibition of proliferation), 0.617 µM; in test [3] (inhibition of proliferation), 0.516 µM; in test [4] (setting [7]) it was 1.88 µM.
As to `CC(=O)c1ccc(-c2cnc3nc(-c4cc(NC(=O)c5oc(C)nc5C)ccc4F)cn3c2)cn1` [Compound 437], the EC50 in test [1] (L. donovani axenic amastigotes) was 0.08 µM; in test [2], 1.25 µM; in test [3], 0.403 µM; in test [4] (setting [5]) it was 0.682 µM.
`CC(C)OC(=O)Nc1cnc2nc(-c3cc(NC(=O)c4cccs4)ccc3F)cn2c1` [Compound 75]: the concentration for a half-maximal effect (EC50) in test [1] (setting [6]) was 0.581 µM; in test [2] (inhibition of proliferation), > 6.02 µM; in test [3] (inhibition of proliferation) it was 0.482 µM; in test [4] (setting [7]), 0.15 µM.
On to `Cc1nc(C)c(C(=O)Nc2ccc(F)c(-c3cn4cc(NC5CCC5)cnc4n3)c2)o1` [Compound 482], for which the half-maximal effective concentration (EC50) was determined as 0.569 µM in test [1] (L. donovani axenic amastigotes), 1.01 µM in test [2], 0.494 µM in test [3] and 0.547 µM in test [4] (setting [5]).
For the compound `Cc1nc(C)c(C(=O)Nc2ccc(F)c(-c3cn4cc(NC(=O)C5CN(C(=O)OC(C)(C)C)CCCO5)cnc4n3)c2)o1` (stereo not drawn) [Compound 173], the concentration giving a half-maximal response (EC50) in test [1] (setting [6]) was determined as 0.355 µM; in test [2] (inhibition of proliferation), 0.578 µM; in test [3] (inhibition of proliferation), 0.148 µM; in test [4] (setting [7]) it was 0.405 µM.
On the same counts, the results for `CCn1ccnc1C(=O)Nc1cnc2nc(-c3cc(NC(=O)c4oc(C)nc4C)ccc3F)cn2c1` [Compound 117] are 0.125 µM, > 50 µM, 0.166 µM and > 20 µM.
In the case of `O=C(Nc1ccc(F)c(-c2cn3cc(Cl)cnc3n2)c1)N1CC(F)(F)C1` [Compound 235], the EC50 was determined as 0.215 µM in test [1] (setting [6]), 0.821 µM in test [2] (inhibition of proliferation), 0.165 µM in test [3] (inhibition of proliferation) and 0.433 µM in test [4] (setting [7]).
For `COC1CCC(C(=O)Nc2ccc(F)c(-c3cn4cc(C5CC5)cnc4n3)c2)CC1` (stereo not drawn) [Compound 597], the EC50 is 24.1 µM in test [1] (L. donovani axenic amastigotes), 17.1 µM in test [2], 31.4 µM in test [3] and 16 µM in test [4] (setting [5]).
For the compound `Cc1ncc(C(=O)Nc2ccc(F)c(-c3cn4cc(C(F)F)cnc4n3)c2)o1` [Compound 209], the EC50 was 0.087 µM in test [1] (setting [6]), 0.317 µM in test [2] (inhibition of proliferation), 0.169 µM in test [3] (inhibition of proliferation) and 0.13 µM in test [4] (setting [7]).
Turning to `CCNc1cnc2nc(-c3cc(NC(=O)c4oc(C)nc4C)ccc3F)cn2c1` [Compound 582, N-(3-(6-(ethylamino)imidazo[1,2-a]pyrimidin-2-yl)-4-fluorophenyl)-2,4-dimethyloxazole-5-carboxamide], the EC50 in test [1] (L. donovani axenic amastigotes) is 0.585 µM; in test [2] it was 0.928 µM; in test [3], 0.476 µM; in test [4] (setting [5]), 0.466 µM.
Regarding `CC(C)OC(=O)Nc1cnc2nc(-c3cc(NC(=O)N4CC[C@@H](F)C4)ccc3F)cn2c1` [Compound 229], the EC50 in test [1] (setting [6]) was determined as 0.884 µM; in test [2] (inhibition of proliferation), 2.82 µM; in test [3] (inhibition of proliferation), 0.776 µM; in test [4] (setting [7]) it was 11 µM.
As to `Cc1csc(C(=O)Nc2cnc3nc(-c4cc(NC(=O)c5oc(C)nc5C)ccc4F)cn3c2)n1` [Compound 148], the EC50 in test [1] (setting [6]) worked out at 0.051 µM; in test [2] (inhibition of proliferation), 0.222 µM; in test [3] (inhibition of proliferation), 0.061 µM; in test [4] (setting [7]), 0.09 µM.
As for `Cc1nc(C)c(C(=O)Nc2ccc(F)c(-c3cn4cc(C5CCC5)cnc4n3)c2)o1` [Compound 210], the EC50 in test [1] (setting [6]) was 0.047 µM; in test [2] (inhibition of proliferation), 0.085 µM; in test [3] (inhibition of proliferation), 0.034 µM; in test [4] (setting [7]), 0.031 µM.
`CCCNc1cnc2nc(-c3cc(NC(=O)N4CCCC4)ccc3F)cn2c1` [Compound 474]: the EC50 in test [1] (L. donovani axenic amastigotes) was 0.292 µM; in test [2], 1.11 µM; in test [3], 0.203 µM; in test [4] (setting [5]) it was 0.478 µM.
Consider `Cc1nc(C)c(C(=O)Nc2ccc(F)c(-c3cn4cc(NC(=O)C5CCC(=O)O5)cnc4n3)c2)o1` (stereo not drawn) [Compound 156], for which the EC50 in test [1] (setting [6]) was 3.88 µM; in test [2] (inhibition of proliferation), > 50 µM; in test [3] (inhibition of proliferation), 10.6 µM; in test [4] (setting [7]), > 20 µM.
Regarding `CC(C)OC(=O)N(C)c1cnc2nc(-c3cc(NC(=O)c4ccco4)ccc3Cl)cn2c1` [Compound 561, isopropyl (2-(2-chloro-5-(furan-2-carboxamido)phenyl)imidazo[1,2-a]pyrimidin-6-yl)(methyl)carbamate], the EC50 in test [1] (L. donovani axenic amastigotes) turned out to be 0.74 µM; in test [2], 2.14 µM; in test [3] it was 0.286 µM; in test [4] (setting [5]) it was 0.139 µM.
For the compound `CC(C)OC(=O)Nc1cnc2nc(-c3cc(NC(=O)c4nccs4)ccc3F)cn2c1` [Compound 242], the concentration for a half-maximal effect (EC50) in test [1] (setting [6]) amounted to 0.687 µM; in test [2] (inhibition of proliferation), 2.2 µM; in test [3] (inhibition of proliferation) it was 0.477 µM; in test [4] (setting [7]), 0.198 µM.
On to `CC(C)Nc1cnc2nc(-c3cc(NC(=O)N4CCC4)ccc3F)cn2c1` [Compound 564], for which the half-maximal effective concentration (EC50) in test [1] (L. donovani axenic amastigotes) was 0.212 µM; in test [2], 0.29 µM; in test [3], 0.056 µM; in test [4] (setting [5]), 0.204 µM.
For the compound `Cc1nc(C)c(C(=O)Nc2ccc(F)c(-c3cn4cc(NC(=O)OC5CCCC5)cnc4n3)c2)o1` [Compound 306], the EC50 in test [1] (setting [6]) came to 0.315 µM; in test [2] (inhibition of proliferation), 0.835 µM; in test [3] (inhibition of proliferation), 0.36 µM; in test [4] (setting [7]), 0.673 µM.
In the case of `O=C(Nc1ccc(Cl)c(-c2cn3cc(C4=CCNCC4)cnc3n2)c1)N1CCCC1` [Compound 570, N-(4-chloro-3-(6-(1,2,3,6-tetrahydropyridin-4-yl)imidazo[1,2-a]pyrimidin-2-yl)phenyl)pyrrolidine-1-carboxamide], the EC50 was found to be 1.82 µM in test [1] (L. donovani axenic amastigotes), 13.6 µM in test [2], 0.248 µM in test [3] and 1.99 µM in test [4] (setting [5]).
Regarding `CC(C)OC(=O)Nc1cnc2nc(-c3cc(NC(=O)N4C[C@@H]5C[C@H]4CO5)ccc3Cl)cn2c1` [Compound 258], the EC50 in test [1] (setting [6]) was 20.2 µM; in test [2] (inhibition of proliferation) it was > 42.5 µM; in test [3] (inhibition of proliferation), 13.1 µM; in test [4] (setting [7]), > 20 µM.
`COCCOC(=O)Nc1cnc2nc(-c3cc(NC(=O)c4oc(C)nc4C)ccc3F)cn2c1` [Compound 304]: the EC50 in test [1] (setting [6]) came to 0.539 µM; in test [2] (inhibition of proliferation), 10.5 µM; in test [3] (inhibition of proliferation) it was 1.42 µM; in test [4] (setting [7]), 2.37 µM.
For `CC(C)OC(=O)Nc1ccc(F)c(-c2cn3cc(-c4ccccc4)cnc3n2)c1` [Compound 331] the same measures were 0.396 µM, 0.36 µM, 0.116 µM and 0.053 µM.
In the case of `CN1CCOC(C(=O)Nc2ccc(F)c(-c3cn4cc(C5CC5)cnc4n3)c2)C1` (stereo not drawn) [Compound 601], the EC50 in test [1] (L. donovani axenic amastigotes) is > 25 µM; in test [2], 4.04 µM; in test [3], > 50 µM; in test [4] (setting [5]), > 20 µM.
